Reference: PubChem BioAssay AID248 (DTP/NCI, 2004)
Where “and” joins values, the source holds several entries; their conditions need not be identical. Equal entries are not always repeated. Inconclusive results and toxic doses are left out. Cut-off read from the data, not from the text of the source: active = T/C of 150% or more; inactive = T/C below 125%.

Tested on: L1210 leukemia ip in BDF1 mice, survival T/C
Assay: NCI In Vivo Anticancer Drug Screen. Data for tumor model L1210 Leukemia (intraperitoneal) in B6D2F1 (BDF1) mice
Details: endpoint: mean survival time, higher = longer survival
Method in brief: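 Transplanted-tumor mice were given test agent; controls received vehicle only. Survival readings from the two groups were divided (treated over control).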

[1] = dose: 100.0 mg/kg/injection, schedule: Q04DX003 (ip), vehicle: Klucel (hydroxypropylcellulose) (HPC)
[2] = dose: 200.0 mg/kg/injection, schedule: Q04DX003 (ip), vehicle: Klucel (hydroxypropylcellulose) (HPC)
[3] = dose: 50.0 mg/kg/injection, schedule: Q01DX009 (ip), vehicle: saline with Tween-80
[4] = dose: 100.0 mg/kg/injection, schedule: Q01DX009 (ip), vehicle: saline with Tween-80
[5] = dose: 100.0 mg/kg/injection, schedule: Q04DX003 (ip), vehicle: saline with Tween-80
[6] = dose: 200.0 mg/kg/injection, schedule: Q04DX003 (ip), vehicle: saline with Tween-80
[7] = dose: 100.0 mg/kg/injection, schedule: Q01DX009 (ip), vehicle: Klucel (hydroxypropylcellulose) (HPC)
[8] = dose: 200.0 mg/kg/injection, schedule: Q01DX009 (ip), vehicle: Klucel (hydroxypropylcellulose) (HPC)
[9] = dose: 100.0 mg/kg/injection, schedule: Q01DX Z (ip), vehicle: methylcellulose (MC)
[10] = dose: 100.0 mg/kg/injection, schedule: Q01DX001 (ip), vehicle: saline
[11] = dose: 200.0 mg/kg/injection, schedule: Q01DX001 (ip), vehicle: saline
[12] = dose: 400.0 mg/kg/injection, schedule: Q01DX001 (ip), vehicle: saline
[13] = dose: 400.0 mg/kg/injection, schedule: Q01DX009 (ip), vehicle: Klucel (hydroxypropylcellulose) (HPC)
[14] = dose: 100.0 mg/kg/injection, schedule: Q04DX003 (ip), vehicle: saline
[15] = dose: 200.0 mg/kg/injection, schedule: Q04DX003 (ip), vehicle: saline
[16] = dose: 400.0 mg/kg/injection, schedule: Q04DX003 (ip), vehicle: saline

Measured: T/C

O=[N+]([O-])c1ccc2ncccc2c1
inactive: [1] 106 % of control | [2] 101 % of control

COc1cc2c(cc1[N+](=O)[O-])C(=O)CCCC2
inactive: [3] 88 % of control | [4] 92 % of control

O=C(C1C2CCC(C2)C1C(=O)N1CCCCC1)N1CCCCC1 (stereo unspecified)
inactive: [5] 100 % of control | [6] 100 % of control | dose: 400.0 mg/kg/injection, schedule: Q04DX003 (ip), vehicle: saline with Tween-80 100 % of control

CC1OC(=O)C(C(C)C)NC(=O)C(C(C)C)OC(=O)C(C(C)C)NC(=O)C(C)OC(=O)C(C(C)C)NC(=O)C(C(C)C)OC(=O)C(C(C)C)NC(=O)C(C)OC(=O)C(C(C)C)NC(=O)C(C(C)C)OC(=O)C(C(C)C)NC1=O (stereo unspecified)
inactive: dose: 0.13 mg/kg/injection, schedule: Q01DX001 (ip), vehicle: saline 103 % of control | dose: 0.25 mg/kg/injection, schedule: Q01DX001 (ip), vehicle: saline 101 % of control | dose: 0.5 mg/kg/injection, schedule: Q01DX001 (ip), vehicle: saline 100 % of control | dose: 1.0 mg/kg/injection, schedule: Q01DX001 (ip), vehicle: saline 98 % of control | dose: 1.25 mg/kg/injection, schedule: Q01DX009 (ip), vehicle: saline with Tween-80 113 % of control | dose: 2.5 mg/kg/injection, schedule: Q01DX009 (ip), vehicle: saline with Tween-80 121 % of control | dose: 5.0 mg/kg/injection, schedule: Q01DX009 (ip), vehicle: saline with Tween-80 113 % of control | dose: 10.0 mg/kg/injection, schedule: Q01DX009 (ip), vehicle: saline with Tween-80 90 % of control

CC[C@@H]1C[C@@H]2CN3CCc4c([nH]c5ccc(OC)cc45)C(C(=O)OC)(C2)C13
inactive: dose: 50.0 mg/kg/injection, schedule: Q01DX009 (ip), vehicle: Klucel (hydroxypropylcellulose) (HPC) 89 % of control | [7] 94 % of control | [8] 89 % of control

CCC(=O)CC1CCCC(CC(=O)CC)N1C (stereo unspecified)
inactive: dose: 9.5 mg/kg/injection, schedule: Q01DX001 (ip), vehicle: saline 96 % of control | dose: 19.0 mg/kg/injection, schedule: Q01DX001 (ip), vehicle: saline 104 % of control | dose: 38.0 mg/kg/injection, schedule: Q01DX001 (ip), vehicle: saline 102 % of control

Cc1cnc(SCc2ccc(F)cc2)nc1N(C)C
inactive: [9] 88 % of control

N=C(N)c1ccccc1
inactive: [9] 94 % of control | dose: 150.0 mg/kg/injection, schedule: Q01DX Z (ip), vehicle: methylcellulose (MC) 96 % of control and 89 % of control

CC(C)(O)/C=C/C(=O)[C@](C)(O)[C@H]1[C@H](O)C[C@@]2(C)[C@@H]3CC=C4[C@@H](C=C(O)C(=O)C4(C)C)[C@]3(C)C(=O)C[C@]12C
inactive: dose: 100.0 micrograms/kg/injection, schedule: Q01DX001 (sc), vehicle: steriod suspending solution 104 % of control | dose: 200.0 micrograms/kg/injection, schedule: Q01DX001 (sc), vehicle: steriod suspending solution 102 % of control | dose: 400.0 micrograms/kg/injection, schedule: Q01DX001 (sc), vehicle: steriod suspending solution 104 % of control | dose: 800.0 micrograms/kg/injection, schedule: Q01DX001 (sc), vehicle: steriod suspending solution 96 % of control

O=c1[nH]cc(COCC(F)(F)F)c(=O)[nH]1
inactive: dose: 50.0 mg/kg/injection, schedule: Q01DX005 (ip), vehicle: other 106 % of control | dose: 100.0 mg/kg/injection, schedule: Q01DX005 (ip), vehicle: other 95 % of control | dose: 200.0 mg/kg/injection, schedule: Q01DX005 (ip), vehicle: other 106 % of control

Cc1ccc(S(=O)(=O)Nc2ccc(-c3ccc(NS(=O)(=O)c4ccc(C)cc4)cc3)cc2)cc1
inactive: dose: 50.0 mg/kg/injection, schedule: Q04DX002 (ip), vehicle: saline with Tween-80 89 % of control | dose: 100.0 mg/kg/injection, schedule: Q04DX002 (ip), vehicle: saline with Tween-80 95 % of control

Cc1nc(NN)ccc1[N+](=O)[O-]
inactive: dose: 100.0 mg/kg/injection, schedule: Q04DX002 (ip), vehicle: Klucel (hydroxypropylcellulose) (HPC) 96 % of control | dose: 200.0 mg/kg/injection, schedule: Q04DX002 (ip), vehicle: Klucel (hydroxypropylcellulose) (HPC) 90 % of control | dose: 400.0 mg/kg/injection, schedule: Q04DX002 (ip), vehicle: Klucel (hydroxypropylcellulose) (HPC) 96 % of control

CN1CCC(=O)N1
inactive: [10] 100 % of control | [11] 100 % of control | [12] 98 % of control

CSC1CCCCC1O (stereo unspecified)
inactive: [3] 89 % of control | [4] 92 % of control | dose: 200.0 mg/kg/injection, schedule: Q01DX009 (ip), vehicle: saline with Tween-80 92 % of control

CC(C)=CN1CCCCC1
inactive: [3] 95 % of control | [4] 101 % of control | [5] 98 % of control | [6] 96 % of control

CC(CO)CCC(O)C(C)C1CCC2C3CCC4CC(O)CCC4(C)C3CCC12C (stereo unspecified)
inactive: dose: 6.25 mg/kg/injection, schedule: Q01DX001 (ip), vehicle: saline with Tween-80 91 % of control | dose: 12.5 mg/kg/injection, schedule: Q01DX001 (ip), vehicle: saline with Tween-80 91 % of control | dose: 25.0 mg/kg/injection, schedule: Q01DX001 (ip), vehicle: saline with Tween-80 90 % of control | dose: 100.0 mg/kg/injection, schedule: Q01DX001 (ip), vehicle: saline with Tween-80 92 % of control | dose: 400.0 mg/kg/injection, schedule: Q01DX001 (ip), vehicle: saline with Tween-80 92 % of control

Cc1ccc(NC(=S)N(C)C)cc1
inactive: [7] 104 % of control | [8] 108 % of control | [13] 108 % of control

C=CS(=O)(=O)CCN(C)C
inactive: dose: 100.0 mg/kg/injection, schedule: Q04DX002 (ip), vehicle: saline 94 % of control | dose: 200.0 mg/kg/injection, schedule: Q04DX002 (ip), vehicle: saline 90 % of control | dose: 400.0 mg/kg/injection, schedule: Q04DX002 (ip), vehicle: saline 94 % of control

O=c1cc(CN(CCO)CCO)[nH]c(=O)[nH]1
inactive: [14] 93 % of control | [15] 95 % of control | [16] 93 % of control

CC(C)(CC(=O)O)c1ccccc1
inactive: [10] 96 % of control | dose: 100.0 mg/kg/injection, schedule: Q01DX009 (ip), vehicle: saline 104 % of control | [14] 100 % of control | [11] 106 % of control | dose: 200.0 mg/kg/injection, schedule: Q01DX009 (ip), vehicle: saline 101 % of control | [15] 104 % of control | [12] 96 % of control | dose: 400.0 mg/kg/injection, schedule: Q01DX009 (ip), vehicle: saline 96 % of control | [16] 91 % of control

ClC(Cl)[P+](N1CCCCC1)(N1CCCCC1)N1CCCCC1
inactive: dose: 0.75 mg/kg/injection, schedule: Q04DX003 (ip), vehicle: Klucel (hydroxypropylcellulose) (HPC) 115 % of control | dose: 1.5 mg/kg/injection, schedule: Q04DX003 (ip), vehicle: Klucel (hydroxypropylcellulose) (HPC) 118 % of control | dose: 3.0 mg/kg/injection, schedule: Q04DX003 (ip), vehicle: Klucel (hydroxypropylcellulose) (HPC) 93 % of control and 118 % of control

CCn1cnc2c(SC)nc(N)nc21
inactive: dose: 37.5 mg/kg/injection, schedule: Q01DX009 (ip), vehicle: Klucel (hydroxypropylcellulose) (HPC) 101 % of control | dose: 50.0 mg/kg/injection, schedule: Q04DX003 (ip), vehicle: other 101 % of control | dose: 75.0 mg/kg/injection, schedule: Q01DX009 (ip), vehicle: Klucel (hydroxypropylcellulose) (HPC) 103 % of control | dose: 100.0 mg/kg/injection, schedule: Q04DX003 (ip), vehicle: other 104 % of control | dose: 150.0 mg/kg/injection, schedule: Q01DX009 (ip), vehicle: Klucel (hydroxypropylcellulose) (HPC) 108 % of control | dose: 200.0 mg/kg/injection, schedule: Q04DX003 (ip), vehicle: other 87 % of control

CCCCN/C(C)=C/C(=O)/C=C(\C)NCCCC
inactive: [7] 94 % of control | [1] 117 % of control | [8] 110 % of control | [2] 96 % of control | [13] 95 % of control | dose: 400.0 mg/kg/injection, schedule: Q04DX003 (ip), vehicle: Klucel (hydroxypropylcellulose) (HPC) 100 % of control

Cc1cc(CC(Cl)(C(F)(F)F)C(F)(F)F)cc(CC(Cl)(C(F)(F)F)C(F)(F)F)n1
inactive: dose: 12.5 mg/kg/injection, schedule: Q01DX009 (ip), vehicle: saline with Tween-80 108 % of control | dose: 25.0 mg/kg/injection, schedule: Q01DX009 (ip), vehicle: saline with Tween-80 106 % of control
